Test results: US8034602B2 (priority 2006, dated 2011)

Tested on: mutant strain CJR0500
Assay: Flask fermentation with tryptophan added to fermentation medium
Format: cell-based, Corynebacterium glutamicum
Settings: 50 mg/L tryptophan in fermentation medium, 30° C., 64 hrs, shaking

## N[C@@H](Cc1c[nH]c2ccccc12)C(=O)O [Tryptophan, L-tryptophan]
  Effect of tryptophan addition on growth: stimulate the growth
